Data as given in ChEMBL document CHEMBL4346657, “Anticancer activity, dual prooxidant/antioxidant effect and apoptosis induction profile of new bichalcophene-5-carboxamidines” (Eur J Med Chem, 2019).
Active and inactive are the calls of the source. The calls are words filed in the database; no cut-off is given here.

Assays:
ACHN = test: Antiproliferative activity against human ACHN cells assessed as growth inhibition after 48 hrs by sulforhodamine B assay; assay type: functional
SN12C = test: Antiproliferative activity against human SN12C cells assessed as growth inhibition after 48 hrs by sulforhodamine B assay; assay type: functional
KM12 = test: Antiproliferative activity against human KM12 cells assessed as growth inhibition after 48 hrs by sulforhodamine B assay; assay type: functional; settings: KM12, 48 h
HCT-116 [1] = test: Induction of apoptosis in human HCT116 cells assessed as increase in p53 mRNA expression at 100 nM after 6 hrs hrs by SYBR green dye-based qRT-PCR analysis relative to control; assay type: functional
SK-OV-3 = test: Antiproliferative activity against human SKOV3 cells assessed as growth inhibition after 48 hrs by sulforhodamine B assay; assay type: functional; settings: SK-OV-3, 48 h
SR = test: Antiproliferative activity against human SR cells assessed as growth inhibition after 48 hrs by sulforhodamine B assay; assay type: functional
[2] = Selectivity index, ratio of IC50 for human WI38 cells to GI50 for human NCI60 cells
SF-268 = test: Antiproliferative activity against human SF268 cells assessed as growth inhibition after 48 hrs by sulforhodamine B assay; assay type: functional; settings: SF-268, 48 h
SF-295 = test: Antiproliferative activity against human SF295 cells assessed as growth inhibition after 48 hrs by sulforhodamine B assay; assay type: functional; settings: SF-295, 48 h
OVCAR-8 = test: Antiproliferative activity against human OVCAR8 cells assessed as growth inhibition after 48 hrs by sulforhodamine B assay; assay type: functional; settings: OVCAR-8, 48 h
M14 = test: Antiproliferative activity against human M14 cells assessed as growth inhibition after 48 hrs by sulforhodamine B assay; assay type: functional; settings: M14, 48 h
HOP-62 = test: Antiproliferative activity against human HOP62 cells assessed as growth inhibition after 48 hrs by sulforhodamine B assay; assay type: functional; settings: HOP-62, 48 h
LOX IMVI = test: Antiproliferative activity against human LOXIMVI cells assessed as growth inhibition after 48 hrs by sulforhodamine B assay; assay type: functional
NCI-H23 = test: Antiproliferative activity against human NCI-H23 cells assessed as growth inhibition after 48 hrs by sulforhodamine B assay; assay type: functional; settings: NCI-H23, 48 h
CAKI-1 = test: Antiproliferative activity against human CAKI-1 cells assessed as growth inhibition after 48 hrs by sulforhodamine B assay; assay type: functional; settings: CAKI-1, 48 h
[3] = Antioxidant activity assessed as hydroxyl radical scavenging activity after 1 hr by salicylic acid-based Fenton reaction assay; assay type: functional
HCT-116 [4] = test: Induction of apoptosis in human HCT116 cells assessed as increase in caspase 9 mRNA expression at 100 nM after 6 hrs hrs by SYBR green dye-based qRT-PCR analysis relative to control; assay type: functional
OVCAR-5 = test: Antiproliferative activity against human OVCAR5 cells assessed as growth inhibition after 48 hrs by sulforhodamine B assay; assay type: functional; settings: OVCAR-5, 48 h
HL-60(TB) = test: Antiproliferative activity against human HL-60(TB) cells assessed as growth inhibition after 48 hrs by sulforhodamine B assay; assay type: functional; settings: HL-60, 48 h
[5] = Antioxidant activity assessed as ABTS radical scavenging activity by spectrophotometric analysis relative to control; assay type: functional; design: concentration or dose not given beside the values; settings: dose or concentration not given here
[6] = Haemolytic activity in human erythrocytes assessed as induction of hemolysis at 2.5 mM after 30 mins relative to H202; assay type: cell-based, Erythrocyte; settings: erythrocytes, read-out: Activity
T47D = test: Antiproliferative activity against human T47D cells assessed as growth inhibition after 48 hrs by sulforhodamine B assay; assay type: functional
UACC-62 = test: Antiproliferative activity against human UACC62 cells assessed as growth inhibition after 48 hrs by sulforhodamine B assay; assay type: functional; settings: UACC-62, 48 h
[7] = Antioxidant activity assessed as DPPH radical scavenging activity incubated in dark for 30 mins by spectrophotometric method relative to ascorbic acid; assay type: functional
UO-31 = test: Antiproliferative activity against human UO31 cells assessed as growth inhibition after 48 hrs by sulforhodamine B assay; assay type: functional; settings: UO-31, 48 h
RXF 393 = test: Antiproliferative activity against human RXF393 cells assessed as growth inhibition after 48 hrs by sulforhodamine B assay; assay type: functional; settings: RXF 393, 48 h
A498 = test: Antiproliferative activity against human A498 cells assessed as growth inhibition after 48 hrs by sulforhodamine B assay; assay type: functional; settings: A498, 48 h
HCT-116 [8] = test: Induction of apoptosis in human HCT116 cells assessed as increase in caspase 3 mRNA expression at 100 nM after 6 hrs hrs by SYBR green dye-based qRT-PCR analysis relative to control; assay type: functional
PC-3 = test: Antiproliferative activity against human PC3 cells assessed as growth inhibition after 48 hrs by sulforhodamine B assay; assay type: functional; settings: PC-3, 48 h
DU-145 = test: Antiproliferative activity against human DU145 cells assessed as growth inhibition after 48 hrs by sulforhodamine B assay; assay type: functional; settings: DU-145, 48 h
HCT-15 = test: Antiproliferative activity against human HCT15 cells assessed as growth inhibition after 48 hrs by sulforhodamine B assay; assay type: functional; settings: HCT-15, 48 h
[9] = tested on: Panel NCI-60 (60 carcinoma cell lines); test: Antiproliferative activity against human NCI60 cells assessed as growth inhibition after 48 hrs by sulforhodamine B assay; assay type: functional
NCI-H460 = test: Antiproliferative activity against human NCI-H460 cells assessed as growth inhibition after 48 hrs by sulforhodamine B assay; assay type: functional; settings: NCI-H460, 48 h
OVCAR-3 = test: Antiproliferative activity against human OVCAR3 cells assessed as growth inhibition after 48 hrs by sulforhodamine B assay; assay type: functional; settings: OVCAR-3, 48 h
EKVX = test: Antiproliferative activity against human EKVX cells assessed as growth inhibition after 48 hrs by sulforhodamine B assay; assay type: functional
HT-29 = test: Antiproliferative activity against human HT-29 cells assessed as growth inhibition after 48 hrs by sulforhodamine B assay; assay type: functional; settings: HT-29, 48 h
HOP-92 = test: Antiproliferative activity against human HOP92 cells assessed as growth inhibition after 48 hrs by sulforhodamine B assay; assay type: functional; settings: HOP-92, 48 h

COc1ccc(-c2ccc(-c3ccc(C(=N)N)o3)o2)cc1
GI50 (ACHN): 1800 nM | GI50 (SN12C): 2020 nM | GI50 (KM12): 590 nM | fold change (FC) (HCT-116 [1]): 0.94 | GI50 (SK-OV-3): 5630 nM | GI50 (SR): 420 nM | Selectivity Index [2]: 41.8 | GI50 (SF-268): 2040 nM | GI50 (SF-295): 1680 nM | GI50 (OVCAR-8): 3190 nM | GI50 (M14): 1470 nM | GI50 (HOP-62): 1500 nM | GI50 (LOX IMVI): 1480 nM | GI50 (NCI-H23): 4340 nM | GI50 (CAKI-1): 1750 nM | Activity [3]: Active | fold change (FC) (HCT-116 [4]): 2.31 | GI50 (OVCAR-5): 2430 nM | GI50 (HL-60(TB)): 1230 nM | inhibition [5]: 69.2% | hemolysis at 0.5 h, 2500 µM [6]: 8.1% | GI50 (T47D): 1530 nM | GI50 (UACC-62): 1290 nM | fold change (FC) [7]: 0.7 | GI50 (UO-31): 1720 nM | GI50 (RXF 393): 2120 nM | GI50 (A498): 1760 nM | fold change (FC) (HCT-116 [8]): 2.67 | GI50 (PC-3): 1880 nM | GI50 (DU-145): 1910 nM | GI50 (HCT-15): 670 nM | GI50 [9]: 1740 nM | LC50 [9]: 20400 nM | TGI [9]: 5890 nM | GI50 (NCI-H460): 1170 nM | GI50 (OVCAR-3): 920 nM | GI50 (EKVX): 2790 nM | GI50 (HT-29): 480 nM

N=C(N)c1ccc(-c2ccc(-c3ccccc3)o2)o1
GI50 (ACHN): 2560 nM | GI50 (SN12C): 3120 nM | GI50 (KM12): 2610 nM | fold change (FC) (HCT-116 [1]): 0.95 | GI50 (SK-OV-3): 4300 nM | Selectivity Index [2]: 28.6 | GI50 (SF-268): 2980 nM | GI50 (SF-295): 1810 nM | GI50 (OVCAR-8): 4000 nM | GI50 (M14): 1620 nM | GI50 (HOP-62): 3590 nM | GI50 (LOX IMVI): 1700 nM | GI50 (NCI-H23): 5780 nM | GI50 (CAKI-1): 3400 nM | Activity [3]: Active | fold change (FC) (HCT-116 [4]): 2.28 | GI50 (OVCAR-5): 2700 nM | GI50 (HOP-92): 1850 nM | GI50 (HL-60(TB)): 2180 nM | inhibition [5]: 41.3% | hemolysis at 0.5 h, 2500 µM [6]: 7% | GI50 (UACC-62): 1930 nM | fold change (FC) [7]: 0.3 | GI50 (UO-31): 1540 nM | GI50 (RXF 393): 2330 nM | GI50 (A498): 3030 nM | fold change (FC) (HCT-116 [8]): 2.33 | GI50 (PC-3): 2640 nM | GI50 (DU-145): 3300 nM | GI50 (HCT-15): 1160 nM | GI50 [9]: 2400 nM | LC50 [9]: 22400 nM | TGI [9]: 6910 nM | GI50 (NCI-H460): 2450 nM | GI50 (OVCAR-3): 3130 nM | GI50 (EKVX): 2340 nM | GI50 (HT-29): 2110 nM

N=C(N)c1ccc(-c2ccc(-c3ccc(Cl)cc3)s2)s1
GI50 (ACHN): 1750 nM | GI50 (SN12C): 1910 nM | GI50 (KM12): 1690 nM | fold change (FC) (HCT-116 [1]): 0.89 | GI50 (SK-OV-3): 1700 nM | GI50 (SR): 320 nM | Selectivity Index [2]: 40 | GI50 (SF-268): 1770 nM | GI50 (SF-295): 1630 nM | GI50 (OVCAR-8): 2480 nM | GI50 (M14): 1710 nM | GI50 (HOP-62): 1750 nM | GI50 (LOX IMVI): 1310 nM | GI50 (NCI-H23): 1620 nM | GI50 (CAKI-1): 1610 nM | Activity [3]: Active | fold change (FC) (HCT-116 [4]): 2.91 | GI50 (OVCAR-5): 1580 nM | GI50 (HOP-92): 1810 nM | GI50 (HL-60(TB)): 1490 nM | inhibition [5]: 81.2% | hemolysis at 0.5 h, 2500 µM [6]: 14.3% | GI50 (T47D): 1550 nM | GI50 (UACC-62): 1800 nM | fold change (FC) [7]: 0.8 | GI50 (UO-31): 1750 nM | GI50 (RXF 393): 1710 nM | GI50 (A498): 13000 nM | fold change (FC) (HCT-116 [8]): 3 | GI50 (PC-3): 1860 nM | GI50 (DU-145): 1620 nM | GI50 (HCT-15): 1200 nM | GI50 [9]: 1730 nM | LC50 [9]: 29500 nM | TGI [9]: 4070 nM | GI50 (NCI-H460): 1510 nM | GI50 (OVCAR-3): 1740 nM | GI50 (EKVX): 1640 nM | GI50 (HT-29): 1430 nM
